Our source for the Ambit profiling values is patent US12157741B2, “Macrocyclic inhibitors of DYRK1A” (DANA-FARBER CANCER INSTITUTE, INC., priority 2018, dated 2024).

In assay [1] the target is various enzymes (Homo sapiens, UniProt Q16584). As to conditions: MLK3; 1 uM.
Protocol: (§1) Ambit profiling from Eurofins (formerly Discoverx) was conducted in accordance with the manufacturer's instructions.
The target in assay [2] is various enzymes (Homo sapiens, UniProt O14578). The note with it: CIT; 1 uM.
Protocol: as §1
For assay [3], the target named is various enzymes (Homo sapiens, UniProt P45984). As to conditions: JNK2; 1 uM.
Protocol: as §1
For assay [4], the target named is T1, various enzymes (Homo sapiens, UniProt O60285).
T1 sequence (O60285 1-661): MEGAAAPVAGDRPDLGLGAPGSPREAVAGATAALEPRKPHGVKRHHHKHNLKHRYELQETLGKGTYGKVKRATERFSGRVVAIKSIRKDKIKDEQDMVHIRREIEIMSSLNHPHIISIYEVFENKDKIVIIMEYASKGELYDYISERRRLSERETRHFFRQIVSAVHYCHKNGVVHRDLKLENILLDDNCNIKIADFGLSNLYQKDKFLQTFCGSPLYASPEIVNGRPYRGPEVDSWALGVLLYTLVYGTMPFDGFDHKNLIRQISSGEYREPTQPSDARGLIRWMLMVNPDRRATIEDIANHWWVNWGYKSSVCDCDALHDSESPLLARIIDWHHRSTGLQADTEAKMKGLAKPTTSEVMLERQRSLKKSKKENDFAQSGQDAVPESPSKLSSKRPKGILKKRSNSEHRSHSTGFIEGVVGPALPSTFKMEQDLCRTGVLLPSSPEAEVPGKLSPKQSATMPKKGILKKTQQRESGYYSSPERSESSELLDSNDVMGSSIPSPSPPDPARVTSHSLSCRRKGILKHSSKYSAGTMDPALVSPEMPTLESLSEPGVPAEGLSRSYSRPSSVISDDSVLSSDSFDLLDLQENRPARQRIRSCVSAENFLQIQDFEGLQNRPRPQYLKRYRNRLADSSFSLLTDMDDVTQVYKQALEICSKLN
As to conditions: ARK5; 1 uM.
Protocol: as §1

Assay [5] deals with T2, various enzymes (Homo sapiens, UniProt Q08881).
T2 sequence (Q08881 1-620): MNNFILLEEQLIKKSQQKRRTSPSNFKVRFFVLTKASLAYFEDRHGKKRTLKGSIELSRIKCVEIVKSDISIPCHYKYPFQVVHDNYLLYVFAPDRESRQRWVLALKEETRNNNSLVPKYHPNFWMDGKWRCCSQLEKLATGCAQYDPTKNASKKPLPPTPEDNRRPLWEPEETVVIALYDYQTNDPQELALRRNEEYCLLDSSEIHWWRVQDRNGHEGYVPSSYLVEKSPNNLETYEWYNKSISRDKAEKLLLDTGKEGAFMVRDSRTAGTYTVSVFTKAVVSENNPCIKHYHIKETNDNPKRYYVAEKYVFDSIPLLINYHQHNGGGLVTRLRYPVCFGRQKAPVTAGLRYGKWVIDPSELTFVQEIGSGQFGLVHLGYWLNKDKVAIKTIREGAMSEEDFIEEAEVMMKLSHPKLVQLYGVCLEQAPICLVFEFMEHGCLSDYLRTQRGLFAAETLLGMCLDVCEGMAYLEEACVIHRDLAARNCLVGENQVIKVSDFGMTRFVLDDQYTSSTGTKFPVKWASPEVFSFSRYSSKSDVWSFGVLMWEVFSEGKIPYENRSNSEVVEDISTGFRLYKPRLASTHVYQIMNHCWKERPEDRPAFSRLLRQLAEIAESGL
The note with it: ITK; 1 uM.
Protocol: as §1

Assay [6] addresses various enzymes (Homo sapiens, UniProt Q16539). The note with it: p38-alpha; 1 uM.
Protocol: as §1
For assay [7], the target named is various enzymes (Homo sapiens, UniProt P08581). As to conditions: MET; 1 uM.
Sequence of various enzymes (Homo sapiens, UniProt P08581) (P08581 25-1390): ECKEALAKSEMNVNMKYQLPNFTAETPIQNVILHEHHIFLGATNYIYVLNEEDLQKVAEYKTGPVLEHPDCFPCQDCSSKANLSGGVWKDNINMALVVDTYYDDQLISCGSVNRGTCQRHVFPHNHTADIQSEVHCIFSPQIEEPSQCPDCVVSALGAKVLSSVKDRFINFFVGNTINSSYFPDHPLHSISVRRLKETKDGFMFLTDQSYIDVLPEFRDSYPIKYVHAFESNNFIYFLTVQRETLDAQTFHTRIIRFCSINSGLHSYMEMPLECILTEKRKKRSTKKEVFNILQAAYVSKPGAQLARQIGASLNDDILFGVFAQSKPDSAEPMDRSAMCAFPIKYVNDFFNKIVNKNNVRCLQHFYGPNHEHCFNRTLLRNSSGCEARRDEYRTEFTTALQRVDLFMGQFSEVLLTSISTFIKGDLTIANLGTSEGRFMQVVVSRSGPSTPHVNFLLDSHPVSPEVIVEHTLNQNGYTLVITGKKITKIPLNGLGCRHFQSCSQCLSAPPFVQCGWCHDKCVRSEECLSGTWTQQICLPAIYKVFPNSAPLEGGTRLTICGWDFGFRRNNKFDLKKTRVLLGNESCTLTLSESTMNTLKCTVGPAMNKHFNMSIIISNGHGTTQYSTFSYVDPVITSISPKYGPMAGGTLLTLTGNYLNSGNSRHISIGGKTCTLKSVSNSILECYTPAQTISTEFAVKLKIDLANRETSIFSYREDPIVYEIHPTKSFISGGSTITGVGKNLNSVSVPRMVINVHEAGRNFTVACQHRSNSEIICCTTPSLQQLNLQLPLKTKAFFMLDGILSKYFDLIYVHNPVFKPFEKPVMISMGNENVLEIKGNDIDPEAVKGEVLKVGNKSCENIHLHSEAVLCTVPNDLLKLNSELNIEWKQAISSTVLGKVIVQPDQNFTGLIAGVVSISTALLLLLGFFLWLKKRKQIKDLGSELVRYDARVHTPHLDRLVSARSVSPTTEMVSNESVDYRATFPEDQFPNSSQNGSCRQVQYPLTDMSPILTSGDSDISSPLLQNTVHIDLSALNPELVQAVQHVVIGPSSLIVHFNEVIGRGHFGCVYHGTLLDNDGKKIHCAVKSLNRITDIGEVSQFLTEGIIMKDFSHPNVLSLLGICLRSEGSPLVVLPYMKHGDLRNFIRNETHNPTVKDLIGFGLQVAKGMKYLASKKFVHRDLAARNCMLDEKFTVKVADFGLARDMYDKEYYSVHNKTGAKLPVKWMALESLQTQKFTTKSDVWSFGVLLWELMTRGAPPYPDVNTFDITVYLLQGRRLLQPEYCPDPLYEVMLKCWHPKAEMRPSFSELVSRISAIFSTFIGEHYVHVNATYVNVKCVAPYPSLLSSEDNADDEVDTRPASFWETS
Protocol: as §1
Assay [8] deals with T3, various enzymes (Homo sapiens, UniProt O14733).
T3 sequence (O14733 1-419): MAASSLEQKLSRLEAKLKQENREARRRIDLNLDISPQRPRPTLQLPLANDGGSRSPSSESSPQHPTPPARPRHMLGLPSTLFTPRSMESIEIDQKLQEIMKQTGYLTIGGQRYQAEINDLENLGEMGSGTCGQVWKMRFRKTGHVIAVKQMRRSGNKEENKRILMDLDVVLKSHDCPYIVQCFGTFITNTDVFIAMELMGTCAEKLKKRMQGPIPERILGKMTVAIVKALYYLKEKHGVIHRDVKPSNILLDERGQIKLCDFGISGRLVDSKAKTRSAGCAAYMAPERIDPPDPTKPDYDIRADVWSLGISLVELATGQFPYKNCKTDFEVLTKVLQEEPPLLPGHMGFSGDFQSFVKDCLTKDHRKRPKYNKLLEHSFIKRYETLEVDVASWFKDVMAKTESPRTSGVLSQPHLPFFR
The note with it: MKK7; 1 uM.
Protocol: as §1

Assay [9] concerns the target T4, various enzymes (Homo sapiens, UniProt Q9NWZ3).
T4 sequence (Q9NWZ3 1-460): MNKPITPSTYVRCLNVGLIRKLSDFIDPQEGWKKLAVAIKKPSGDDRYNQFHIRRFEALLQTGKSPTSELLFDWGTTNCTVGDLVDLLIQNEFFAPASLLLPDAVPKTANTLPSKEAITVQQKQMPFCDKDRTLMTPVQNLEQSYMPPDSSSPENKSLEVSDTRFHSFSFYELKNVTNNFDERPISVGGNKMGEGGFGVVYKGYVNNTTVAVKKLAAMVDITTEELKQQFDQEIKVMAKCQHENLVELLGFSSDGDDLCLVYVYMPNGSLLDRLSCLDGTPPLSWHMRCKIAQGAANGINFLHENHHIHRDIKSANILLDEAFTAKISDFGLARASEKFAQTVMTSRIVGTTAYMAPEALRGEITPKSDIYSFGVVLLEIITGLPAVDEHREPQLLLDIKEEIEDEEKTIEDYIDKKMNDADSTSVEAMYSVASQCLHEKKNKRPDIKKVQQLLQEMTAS
As to conditions: IRAK4; 1 uM.
Protocol: as §1

Sequence of various enzymes (Homo sapiens, UniProt P45984) (P45984 whole entry): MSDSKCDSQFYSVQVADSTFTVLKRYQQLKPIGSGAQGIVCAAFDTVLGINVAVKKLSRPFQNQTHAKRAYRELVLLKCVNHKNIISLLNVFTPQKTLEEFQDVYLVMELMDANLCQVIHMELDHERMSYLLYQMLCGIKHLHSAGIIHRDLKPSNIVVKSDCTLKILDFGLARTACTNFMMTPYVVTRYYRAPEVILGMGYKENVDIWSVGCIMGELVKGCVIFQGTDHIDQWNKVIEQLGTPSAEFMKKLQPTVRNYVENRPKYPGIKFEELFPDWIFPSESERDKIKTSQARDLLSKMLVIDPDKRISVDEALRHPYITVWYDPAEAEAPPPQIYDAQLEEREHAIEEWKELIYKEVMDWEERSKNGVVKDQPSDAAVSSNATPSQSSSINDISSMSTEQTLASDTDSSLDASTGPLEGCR
Sequence of various enzymes (Homo sapiens, UniProt O14578) (O14578 whole entry): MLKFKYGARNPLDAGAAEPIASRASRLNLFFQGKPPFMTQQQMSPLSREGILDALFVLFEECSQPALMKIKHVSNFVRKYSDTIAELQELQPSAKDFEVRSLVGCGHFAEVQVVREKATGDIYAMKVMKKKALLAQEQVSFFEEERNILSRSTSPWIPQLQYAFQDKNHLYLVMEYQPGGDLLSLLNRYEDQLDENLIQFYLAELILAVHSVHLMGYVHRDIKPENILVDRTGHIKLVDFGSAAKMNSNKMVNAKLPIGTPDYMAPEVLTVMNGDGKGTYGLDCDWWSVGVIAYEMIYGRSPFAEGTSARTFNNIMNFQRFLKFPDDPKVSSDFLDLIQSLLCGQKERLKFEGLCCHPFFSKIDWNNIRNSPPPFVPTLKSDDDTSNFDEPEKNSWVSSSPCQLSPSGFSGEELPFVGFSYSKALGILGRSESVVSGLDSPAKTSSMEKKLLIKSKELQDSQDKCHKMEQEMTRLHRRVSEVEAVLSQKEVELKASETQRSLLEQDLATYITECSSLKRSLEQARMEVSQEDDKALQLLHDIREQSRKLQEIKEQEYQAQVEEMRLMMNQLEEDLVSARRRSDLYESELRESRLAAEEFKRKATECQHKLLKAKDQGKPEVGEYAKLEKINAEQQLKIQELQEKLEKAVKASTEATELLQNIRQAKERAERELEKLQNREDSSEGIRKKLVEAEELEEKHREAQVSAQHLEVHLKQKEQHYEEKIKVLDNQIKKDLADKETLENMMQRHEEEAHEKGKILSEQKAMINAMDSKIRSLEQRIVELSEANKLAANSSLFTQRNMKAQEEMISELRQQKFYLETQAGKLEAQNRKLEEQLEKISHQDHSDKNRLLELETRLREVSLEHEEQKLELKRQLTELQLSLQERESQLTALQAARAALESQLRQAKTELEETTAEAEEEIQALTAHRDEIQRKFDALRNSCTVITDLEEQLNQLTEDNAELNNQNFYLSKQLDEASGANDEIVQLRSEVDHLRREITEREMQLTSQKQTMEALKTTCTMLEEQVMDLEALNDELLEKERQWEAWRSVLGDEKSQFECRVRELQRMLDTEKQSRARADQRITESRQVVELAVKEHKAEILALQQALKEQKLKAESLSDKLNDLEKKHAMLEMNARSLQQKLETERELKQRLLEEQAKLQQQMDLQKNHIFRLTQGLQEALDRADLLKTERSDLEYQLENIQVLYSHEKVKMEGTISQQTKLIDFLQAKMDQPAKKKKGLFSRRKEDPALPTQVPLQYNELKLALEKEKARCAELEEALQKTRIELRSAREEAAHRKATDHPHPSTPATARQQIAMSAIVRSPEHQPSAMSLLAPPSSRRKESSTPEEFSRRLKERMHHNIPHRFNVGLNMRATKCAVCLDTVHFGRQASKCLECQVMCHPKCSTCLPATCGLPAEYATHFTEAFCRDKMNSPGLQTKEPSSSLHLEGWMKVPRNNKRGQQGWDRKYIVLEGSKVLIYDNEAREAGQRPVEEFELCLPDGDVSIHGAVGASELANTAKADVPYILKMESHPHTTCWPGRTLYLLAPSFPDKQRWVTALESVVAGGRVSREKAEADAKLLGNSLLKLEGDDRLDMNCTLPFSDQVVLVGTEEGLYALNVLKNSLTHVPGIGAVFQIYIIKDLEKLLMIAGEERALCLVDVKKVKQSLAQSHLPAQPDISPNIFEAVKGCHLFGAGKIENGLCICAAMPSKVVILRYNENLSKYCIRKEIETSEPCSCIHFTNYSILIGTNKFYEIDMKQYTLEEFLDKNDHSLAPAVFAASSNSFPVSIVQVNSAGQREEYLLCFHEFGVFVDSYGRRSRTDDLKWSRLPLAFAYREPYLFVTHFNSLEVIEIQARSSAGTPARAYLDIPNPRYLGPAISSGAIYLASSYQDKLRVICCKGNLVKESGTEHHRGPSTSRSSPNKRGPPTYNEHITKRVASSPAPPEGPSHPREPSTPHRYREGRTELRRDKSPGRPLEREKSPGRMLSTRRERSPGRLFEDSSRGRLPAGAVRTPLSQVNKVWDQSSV
Sequence of various enzymes (Homo sapiens, UniProt Q16584) (Q16584 whole entry): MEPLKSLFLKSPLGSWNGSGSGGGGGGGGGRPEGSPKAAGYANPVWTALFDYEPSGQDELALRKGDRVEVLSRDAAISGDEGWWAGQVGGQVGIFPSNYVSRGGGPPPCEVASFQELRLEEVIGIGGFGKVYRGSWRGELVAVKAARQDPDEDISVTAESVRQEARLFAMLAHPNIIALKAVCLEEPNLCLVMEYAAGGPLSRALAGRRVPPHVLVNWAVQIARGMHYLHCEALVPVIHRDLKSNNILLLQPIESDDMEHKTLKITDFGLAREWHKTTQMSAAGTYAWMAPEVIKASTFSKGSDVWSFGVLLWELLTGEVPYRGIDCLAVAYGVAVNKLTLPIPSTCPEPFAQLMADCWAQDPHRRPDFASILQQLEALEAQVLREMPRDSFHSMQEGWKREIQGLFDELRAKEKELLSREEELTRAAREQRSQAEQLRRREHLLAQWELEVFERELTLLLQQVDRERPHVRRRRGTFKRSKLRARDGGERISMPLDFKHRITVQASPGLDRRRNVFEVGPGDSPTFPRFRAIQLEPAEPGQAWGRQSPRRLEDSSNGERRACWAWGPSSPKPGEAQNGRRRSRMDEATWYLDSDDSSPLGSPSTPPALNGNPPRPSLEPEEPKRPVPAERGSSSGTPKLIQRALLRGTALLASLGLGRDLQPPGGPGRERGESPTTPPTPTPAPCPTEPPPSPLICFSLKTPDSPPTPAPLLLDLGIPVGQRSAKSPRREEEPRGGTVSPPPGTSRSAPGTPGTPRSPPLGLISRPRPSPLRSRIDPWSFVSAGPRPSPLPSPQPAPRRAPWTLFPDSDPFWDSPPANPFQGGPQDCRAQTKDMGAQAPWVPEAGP
Sequence of various enzymes (Homo sapiens, UniProt Q16539) (Q16539 whole entry): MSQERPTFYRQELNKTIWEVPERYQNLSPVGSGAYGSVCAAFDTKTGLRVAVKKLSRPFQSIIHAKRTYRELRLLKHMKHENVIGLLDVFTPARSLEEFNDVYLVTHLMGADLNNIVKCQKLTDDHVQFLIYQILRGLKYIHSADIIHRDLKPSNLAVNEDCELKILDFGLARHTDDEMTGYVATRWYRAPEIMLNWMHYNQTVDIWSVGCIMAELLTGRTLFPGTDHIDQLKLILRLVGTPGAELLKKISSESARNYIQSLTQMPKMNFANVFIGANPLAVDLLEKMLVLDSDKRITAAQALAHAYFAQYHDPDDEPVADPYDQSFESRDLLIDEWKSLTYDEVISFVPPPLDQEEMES

On to `CN1Cc2nn(C)cc2-c2cnc3[nH]cc(c3c2)-c2cnn(c2)CCCC1=O` [Compound 41, (Z)-31,5-dimethyl-11H,21H,31H-5-aza-2(3,5)-pyrrolo[2,3-b]pyridina-1(4,1),3(4,3)-dipyrazolacyclononaphan-6-one], for which the Ambit profiling in assay [1] worked out at 69; in assay [2], 99; in [3], 1.1; in [4], 8.9; in assay [5] it was 65; in [6], 99. The figures for the Ambit profiling in assay [7], in [8] and in assay [9] were 30, 28 and 12, respectively.
Consider `CN1Cc2nn(C)c(C#N)c2-c2cnc3[nH]cc(c3c2)-c2cn(nc2C(F)(F)F)CCCC1=O` [Compound 48, (Z)-31,5-dimethyl-6-oxo-13-(trifluoromethyl)-11H,21H,31H-5-aza-2(3,5)-pyrrolo[2,3-b]pyridina-1(4,1),3(4,3)-dipyrazolacyclononaphane-35-carbonitrile], for which the Ambit profiling in assay [1] was 80; in assay [2] it was 74; in assay [3] it was 8.1; in assay [4], 100; in assay [5] it was 100; in [6], 95. The Ambit profiling in assay [7] worked out at 48; in assay [8], 99; in assay [9], 100.
